The text below walks through data of patent US20150315188A1, “COMPOUNDS AND METHODS FOR TREATMENT OF HYPERTENSION” (MEDIVATION TECHNOLOGIES, INC., priority 2012, published 2015).

Experiment [1] addresses T1, Human adrenergic α2B receptor (Homo sapiens, UniProt P18089).
T1 sequence (P18089 1-450): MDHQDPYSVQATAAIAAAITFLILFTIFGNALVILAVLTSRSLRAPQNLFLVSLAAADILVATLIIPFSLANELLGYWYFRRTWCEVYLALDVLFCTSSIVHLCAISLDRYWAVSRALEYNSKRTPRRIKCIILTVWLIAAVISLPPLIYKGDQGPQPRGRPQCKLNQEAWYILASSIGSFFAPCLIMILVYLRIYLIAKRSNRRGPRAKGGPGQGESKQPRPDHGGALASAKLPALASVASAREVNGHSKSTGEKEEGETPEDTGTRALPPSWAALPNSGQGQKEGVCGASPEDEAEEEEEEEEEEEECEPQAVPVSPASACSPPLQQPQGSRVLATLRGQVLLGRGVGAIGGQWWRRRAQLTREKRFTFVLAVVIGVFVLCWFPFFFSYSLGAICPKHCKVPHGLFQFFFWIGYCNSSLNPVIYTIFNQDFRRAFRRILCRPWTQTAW
As to the kind of experiment: β-Arrestin GPCR functional assay, adrenergic α2B (Protocol B). Type of experiment: cell-based. To be noted: for IC50: β-arrestin, antagonist vs nor-epinephrine EC80, read-out: IC50 Adrenergic α2B; for Percentage inhibition, Adrenergic α2B: nor-epinephrine at EC80 (50 nM). An outline of the steps:
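CHO cells overexpressing human α2B (PathHunter β-arrestin), 12,000 per well, 24 h at 37° C; compounds in 1% DMSO 30 min, then 50 nM norepinephrine (EC80) 90 min at 37° C.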

Experiment [2] concerns the target T2, Human adrenergic α1B receptor (Homo sapiens, UniProt P35368).
T2 sequence (P35368 1-520): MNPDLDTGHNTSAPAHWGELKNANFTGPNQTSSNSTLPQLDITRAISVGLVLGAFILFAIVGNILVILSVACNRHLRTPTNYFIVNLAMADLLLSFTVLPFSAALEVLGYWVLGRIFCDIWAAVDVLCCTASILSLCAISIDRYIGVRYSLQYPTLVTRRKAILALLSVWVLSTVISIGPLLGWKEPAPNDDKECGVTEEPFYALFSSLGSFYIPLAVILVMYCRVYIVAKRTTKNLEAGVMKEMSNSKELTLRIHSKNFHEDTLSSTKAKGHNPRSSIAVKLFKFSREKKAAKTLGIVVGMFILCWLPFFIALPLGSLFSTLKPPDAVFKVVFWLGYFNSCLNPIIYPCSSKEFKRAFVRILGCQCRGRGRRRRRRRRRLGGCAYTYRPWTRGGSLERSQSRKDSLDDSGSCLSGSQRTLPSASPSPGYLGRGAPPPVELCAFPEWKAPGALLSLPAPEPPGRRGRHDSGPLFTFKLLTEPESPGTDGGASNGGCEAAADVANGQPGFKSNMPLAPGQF
Nature of the experiment: β-Arrestin GPCR functional assay, adrenergic α1B (Protocol B). Type of experiment: cell-based. The note with it: for IC50: β-arrestin, antagonist vs nor-epinephrine EC80; for Percentage inhibition, Adrenergic α1B: nor-epinephrine at EC80 (50 nM). Here is the method: To evaluate the activity of compounds in β-Arrestin GPCR functional assays, recombinant CHO cell line (DiscoveRX), over expressed with human adrenergic α1B receptor were used. The experiment was done with a kit of DiscoveRX as per recommended protocol of the supplier. Cells were harvested from culture flask using cell dissociation solution (CDS) and plated at a density of 12,000 cells/well in CP reagent (supplied with the kit) in a half area 96-well white polystyrene plate. After 24 h incubation at 37° C., compounds at various concentrations in 1% (final) DMSO were charged to the cells for 30 min at 37° C. Active nor-epinephrine (-NE) at its EC80 concentrations (50 nM) were then added to the cells and incubated for another 90 min at 37° C. Detection mix was prepared by mixing Path Hunter cell assay buffer, Emerald II solution and Galactone star solution in a ratio of 19:5:1 and incubated with the cells for 60 min at RT in the dark. The reading was taken in Envision at luminescence mode. Biochemical assay results are presented as the percent Inhibition in Table B2a, or IC50 values in Table B2b.

For experiment [3], the target named is T1, Human adrenergic α2B receptor. As to the kind of experiment: Radioligand binding, adrenergic α2B (Protocol Group B). Set-up: purchased Milipore (Millipore). To be noted: Protocol Group B; for Percentage inhibition of ligand binding, Adrenergic α2B (10 nM) / inhibition at 0.01 µM: 10 nM compound; for Percentage inhibition of ligand binding, Adrenergic α2B (10 nM): 0.01 µM; for Percentage inhibition of ligand binding, Adrenergic α2B (30 nM) / inhibition at 0.03 µM: 30 nM compound; for Percentage inhibition of ligand binding, Adrenergic α2B (30 nM): 0.03 µM; for Percentage inhibition of ligand binding, Adrenergic α2B (0.1 μM) / inhibition at 0.1 µM: 0.1 μM compound; for Ki: estimated Ki, read-out: Ki α2B; for inhibition at 0.01 µM: read-out: Percentage inhibition of ligand binding, Adrenergic α2B (10 nM); for inhibition at 0.03 µM: read-out: Percentage inhibition of ligand binding, Adrenergic α2B (30 nM); for inhibition at 0.1 µM: read-out: Percentage inhibition of ligand binding, Adrenergic α2B (0.1 μM). In a few lines: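 Recombinant human α2B receptor membranes incubated with compounds in 50 mM Tris-HCl pH 7.4, 5 mM MgCl2, 1 mM CaCl2, 0.2% BSA, 1% DMSO vehicle. Non-specific binding defined with 10 μM rauwolscine. Values are percent inhibition of specific binding or estimated Ki.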

Experiment [4] concerns the target T2, Human adrenergic α1B receptor. Nature of the experiment: Radioligand binding, adrenergic α1B (Protocol Group B). Set-up: purchased Milipore (Millipore). The note with it: Protocol Group B; for Percentage inhibition of ligand binding, Adrenergic α1B (0.1 μM) / inhibition at 0.1 µM: 0.1 μM compound; for Percentage inhibition of ligand binding, Adrenergic α1B (0.3 μM) / inhibition at 0.3 µM: 0.3 μM compound; for Ki: estimated Ki; for inhibition at 0.1 µM: read-out: Percentage inhibition of ligand binding, Adrenergic α1B (0.1 μM); for inhibition at 0.3 µM: read-out: Percentage inhibition of ligand binding, Adrenergic α1B (0.3 μM). In a few lines: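 Recombinant human α1B membranes incubated with test compound and 0.3 nM [3H]prazosin, 60 min at 25 °C, in 50 mM Tris-HCl pH 7.4, 10 mM MgCl2, 1 mM EDTA; nonspecific binding with 10 μM prazosin. Filter-bound radioactivity counted; values are % inhibition of specific binding or estimated Ki.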

Regarding `Cc1ccc2c(c1)c1c(n2CC(C)(O)c2ccnc(F)c2)CCN2CCCC12` (single isomer, unassigned) [48b], in experiment [1], the IC50 (commonly the midpoint of a concentration-inhibition curve) came out at 0.018 µM. In addition, the IC50 in experiment [2] is 0.123 µM. For the same compound, in experiment [3], the “Percentage inhibition of ligand binding, Adrenergic α2B (10 nM)” value (from here on “Percentage inhibition … (10 nM)”) came to 92%; the “Percentage inhibition of ligand binding, Adrenergic α2B (30 nM)” value (shortened to “Percentage inhibition … (30 nM)”) is reported as 93%; the Ki (in general, the equilibrium dissociation constant of an inhibitor or competing ligand from its target) is 0.00089 µM. Further, the “Percentage inhibition of ligand binding, Adrenergic α2B (0.1 μM)” value in experiment [3] (0.1 µM) stood at 91%. Further, in experiment [4], the “Percentage inhibition of ligand binding, Adrenergic α1B (0.1 μM)” value amounted to 71%; the “Percentage inhibition of ligand binding, Adrenergic α1B (0.3 μM)” value (“Percentage inhibition … (0.3 μM)” below) was determined as 84%; the Ki is 0.0259 µM.

For the compound `Cc1ccc2c(c1)c1c(n2CC(OCC2CCC2)c2ccncc2)CCN(C)C1` (single isomer, unassigned) [59a], the concentration for half-maximal inhibition (IC50) in experiment [1] was 0.067 µM. Besides, it took 0.35 µM to reach half-maximal inhibition in experiment [2] (IC50). In addition, in experiment [3], the inhibition (commonly the relative decrease from the control value, in per cent) at 0.01 µM is 93%; the inhibition at 0.03 µM was 98%; the inhibition at 0.1 µM is 100%; the Ki is 0.001 µM. In experiment [4], the inhibition at 0.1 µM was 69%, the inhibition at 0.3 µM turned out to be 91% and the Ki is 0.016 µM.

With `Cc1cc2c3c(n(CC(C)(O)c4ccncc4)c2cc1Cl)CCN1CCCC31` (single isomer, unassigned) [50b], in experiment [1], the IC50 was 0.012 µM. In experiment [2], this compound returned an IC50 of 0.054 µM. Moreover, in experiment [3], the “Percentage inhibition … (10 nM)” value is recorded as 98%; the “Percentage inhibition … (30 nM)” value worked out at 100%; the “Percentage inhibition of ligand binding, Adrenergic α2B (0.1 μM)” value stood at 100%; the Ki is 0.00075 µM. Moreover, in experiment [4], the “Percentage inhibition of ligand binding, Adrenergic α1B (0.1 μM)” value was 80%; the “Percentage inhibition … (0.3 μM)” value turned out to be 93%; the Ki was 0.0069 µM.

Regarding `Cc1cc(C)c2c(c1)c1c(n2CC(C)(O)c2cccnc2)CCN2CCCC12` (single isomer, unassigned) [44b], the IC50 in experiment [1] was 0.01 µM. In addition, the 50% inhibitory concentration (IC50) in experiment [2] came out at 0.252 µM. In experiment [3], the “Percentage inhibition … (10 nM)” value turned out to be 98%; the “Percentage inhibition … (30 nM)” value was determined as 98%; the Ki was 0.00081 µM. In experiment [3] (0.1 µM), the “Percentage inhibition of ligand binding, Adrenergic α2B (0.1 μM)” value is recorded as 100%. Besides, in experiment [4], the “Percentage inhibition of ligand binding, Adrenergic α1B (0.1 μM)” value amounted to 69%; the “Percentage inhibition … (0.3 μM)” value came to 85%; the Ki is 0.014 µM.

For the compound `Cc1cc2c3c(n(CC(C)(O)c4ccncc4)c2cc1Cl)CCN1CCCC31` (single isomer, unassigned) [50a], the IC50 in experiment [1] is 0.014 µM. In experiment [2], the half-inhibitory concentration (IC50) came out at 0.047 µM. For the same compound, in experiment [3], the inhibition at 0.01 µM came out at 95%, the inhibition at 0.03 µM was determined as 99%, the inhibition at 0.1 µM came to 100% and the Ki was 0.00075 µM. In experiment [4], the inhibition at 0.1 µM turned out to be 89%, the inhibition at 0.3 µM was found to be 96% and the Ki was 0.0037 µM.

With `CCCOC(Cn1c2c(c3cc(C)ccc31)CN(C)CC2)c1ccncc1` (single isomer, unassigned) [42a], the IC50 in experiment [1] was found to be 0.181 µM. Moreover, the IC50 in experiment [2] was 0.636 µM. In experiment [3], the inhibition at 0.01 µM came out at 74%, the inhibition at 0.03 µM turned out to be 89%, the inhibition at 0.1 µM came out at 97% and the Ki is 0.0023 µM. Moreover, in experiment [4], the inhibition at 0.1 µM is 44%; the “Percentage inhibition … (0.3 μM)” value is recorded as 70%; the Ki is 0.054 µM.

On to `Cc1ccc2c(c1)c1c(n2CC(OCC2CCC2)c2ccncc2)CCN2CCCC12` (single isomer, unassigned) [138a], for which the IC50 in experiment [1] worked out at 0.0172 µM. The compound further displayed an IC50 in experiment [2] of 0.0722 µM. Also, in experiment [3], the inhibition at 0.01 µM turned out to be 91%, the inhibition at 0.03 µM was 90% and the Ki is 0.00095 µM. In experiment [4], the “Percentage inhibition of ligand binding, Adrenergic α1B (0.1 μM)” value was 84%; the inhibition at 0.3 µM amounted to 88%; the Ki is 0.0024 µM.

Consider `CC(O)(Cn1c2c(c3cc(Cl)cc(F)c31)C1CCCN1CC2)c1ccncc1` (single isomer, unassigned) [52b], for which the IC50 in experiment [1] came out at 0.049 µM. This compound also came in with an IC50 in experiment [2] of 0.224 µM. Further, in experiment [3], the “Percentage inhibition … (10 nM)” value came to 94%; the “Percentage inhibition … (30 nM)” value was determined as 96%; the Ki was 0.00071 µM. Moreover, the “Percentage inhibition of ligand binding, Adrenergic α2B (0.1 μM)” value in experiment [3] (0.1 µM) was 99%. Besides, in experiment [4], the “Percentage inhibition of ligand binding, Adrenergic α1B (0.1 μM)” value is listed as 35%; the “Percentage inhibition … (0.3 μM)” value is reported as 73%; the Ki was 0.0398 µM.

Regarding `Cc1cc(F)c2c(c1)c1c(n2CC(C)(O)c2ccncc2)CCN2CCCC12` (single isomer, unassigned) [81a], the IC50 in experiment [1] is 0.016 µM. The IC50 in experiment [2] was 0.091 µM. For the same compound, in experiment [3], the inhibition at 0.01 µM came out at 96%, the inhibition at 0.03 µM was 99%, the inhibition at 0.1 µM came out at 99% and the Ki was 0.00091 µM. For the same compound, in experiment [4], the “Percentage inhibition of ligand binding, Adrenergic α1B (0.1 μM)” value was 72%; the inhibition at 0.3 µM worked out at 89%; the Ki was 0.0146 µM.

For `Cc1ccc2c(c1)c1c(n2CC(C)(O)c2ccncc2)CCN2CCCC12` (single isomer, unassigned) [13b], the “Percentage inhibition, Adrenergic α2B” value in experiment [1] (10 nM compound) amounted to 4%; in experiment [1] (30 nM compound), 30%; in experiment [1] (0.1 μM compound) it was 102%. Also, the IC50 in experiment [1] was 0.012 µM; in experiment [2] it was 0.15 µM. In addition, the “Percentage inhibition, Adrenergic α1B” value was determined as 32% in experiment [2] (0.1 μM compound) and 61% in experiment [2] (0.3 μM compound). For the same compound, the Ki is 0.00122 µM in experiment [3] and 0.035 µM in experiment [4].
